These are literature values, as cited in patent US5869538A, “Method for enhancing transport of gases to tissues” (priority 1996, dated 1999).

The conditions of the data set: for Diffusivities / Solubilities: Table 2, simulation parameter.

Turning to `[N-]=[N+]=O` [N2O, reference compound], the N2O solubility is listed as 0.45 ml N2 O /ml blood/atm.

On to `O=C=O` [CO2, carbon dioxide], for which the Diffusivities was 1.05 × 10^-3 cm^2 /min and the Solubilities is on record as 2.35 mlml^-1 100 kPa^-1.

For `O=O` [O2, oxygen], the Diffusivities was 1.24 × 10^-3 cm^2 /min and the Solubilities is on record as 0.0227 mlml^-1 100 kPa^-1.

As to `N#N` [N2, nitrogen], the Diffusivities is 1.32 × 10^-3 cm^2 /min.
